Earlier results on one molecule are cited in patent US11590211B2, “Systems for treating dermal inflammatory conditions” (Nuvothera, Inc., priority 2016, dated 2023).

One data set deals with human keratinocytes. As to conditions: through suppression of pro-inflammatory pathways; references 8, 9.
Another data set concerns NF-κB. To be noted: reference 5.
A further data set concerns modified mouse tail test. To be noted: reference 7.
Another data set concerns skin cells. To be noted: reference 10.

For `COc1cc(/C=C/C(=O)CC(=O)/C=C/c2ccc(O)c(OC)c2)ccc1O` [curcumin], the “Effect on proliferation of human keratinocytes” value in the data set on human keratinocytes is given as “inhibition of the proliferation”. For the same molecule, the “Activation of NF-κB” value in the data set on NF-κB is on record as “down-modulated”. The “Activity in the modified mouse tail test” value in the data set with modified mouse tail test is “anti-psoriatic activity”. Moreover, the “Effect on anti-apoptotic function of TNF-α in skin cells” value with skin cells was “reverse the anti-apoptotic function of TNF-α”.
